Data published in US20190023738A1, “THERAPEUTIC COMPOSITIONS INCLUDING PHENAZINE-3-ONE AND PHENOTHIAZINE-3-ONE DERIVATIVES AND USES THEREOF” (Stealth BioTherapeutics Corp, priority 2015, published 2019).

Columns and labels:
[1] = tested on: several mammalian cell types; details: cited from earlier work
neonatal cardiomyocytes = test: Mitosox mitochondrial superoxide in Angiotensin II-stimulated neonatal cardiomyocytes (flow cytometry); assay type: cell-based, mouse; details: NAC 0.5 mM, Angiotensin II 1 μM for 3 hours, Mitosox fluorescence
Experimental: Ventricles from mouse neonates younger than 72 hours will be dissected, minced, and enzymatically digested with Blendzyme 4 (45 mg/mL, Roche). After enzymatic digestion, cardiomyocytes will be enriched using differential pre-plating for 2 hours, and seeded on fibronectin-coated culture dishes for 24 hours in DMEM (Gibco) with 20% Fetal Bovine Serum (Sigma) and 25 μM Arabinosylcytosine (Sigma). Cardiomyocytes will be stimulated with Angiotensin II (1 μM) for 3 hours in serum-free DMEM containing 0.5% insulin transferrin-selenium (Sigma), 2 mM glutamine, and 1 mg/mL BSA. […] Samples will be analyzed using excitation/emission of 488/625 nm by flow cytometry. Flow data will be analyzed using FCS Express (De Novo Software, Los Angeles, Calif., U.S.A.), and presented as histogram distributions of Mitosox fluorescence intensity.

Molecule | penetration of the plasma membrane [1] | effect on the level of mitochondrial ROS after Ang II (neonatal cardiomyocytes)
2′,6′-Dmt-D-Arg-Phe-Lys-NH2 | readily penetrates the plasma membrane of several mammalian cell types in an energy-independent manner | 
CC(=O)N[C@@H](CS)C(=O)O [N-acetyl cysteine] |  | not show any effect
